Target: GST-hRIPK1 (8-327) (Homo sapiens (Human), UniProt Q13546)
Assay: Fluorescent Polarization Binding (FP Binding) assay, RIPK1
Conditions: 10 nM GST-hRIPK1 (8-327), 5 nM fluorescent-labeled ligand, RT, 30 min, mean of at least two independent experiments
Experimental: Fluorescent Polarization Binding (FP Binding) assay (Berger S. B. et al. (2015) Cell Death Discovery, 1: 15009; Maki J. L. et al. (2012) Anal Biochem., 427(2): 164-174) was performed in polystyrene low volume 384-well black plate, at RT in a final volume of 10.1 μl/well using 10 nM of GST-hRIPK1 (8-327) enzyme and 5 nM of fluorescent-labeled ligand (14-(2-{[3-({2-{[4-(cyanomethyl)phenyl]amino]-6-[(5-cyclopropyl-1H-pyrazol-3-yl)amino]-4-pyrimidinyl}amino) propyl}amino}-2-oxoethyl)-16,16,18,18-tetramethyl-6,7,7a,8a,9,10,16,18-octahydrobenzo [2″,3″]indolizino[8″,7″:5′,6′]pyrano [3′,2′:3,4]pyrido[1,2-a]indo1-5-ium-2-sulfonate.
Test compounds were serially diluted in DMSO at 100 fold final concentrations in the assay (1% DMSO final). In each well of a 384-well Plate were dispensed 0.1 μL of compound solution (or DMSO for controls) followed by 5 μL of GST-hRIPK1 (8-327) at twice the final concentrations in assay buffer (50 mM HEPES pH 7.5, 10 mM NaCl, 50 mM MgCl2, 0.02% CHAPS, 0.5 mM DTT and 0.01% Pluronic F127). For negative control the enzyme addition was replaced by assay buffer only.
After addition of 5 μL of fluorescentlabeled ligand at twice the final concentrations in assay buffer, the plate was incubated at RT for […]. At the end, the binding was measured as FP value with the Envision (PerkinElmer) plate reader using filter for an excitation λ=531 nm FP and an emission λ=595 nm FP (S & P-pol). GST-hRIPK1 (8-327) enzyme was produced via Baculovirus expression.
Test compound inhibition was expressed as percent inhibition of internal assay controls. For concentration response curves, normalized data is fit and IC50 determined using XL-fit (IDBS) for Excel. The IC50 values were averaged to determine a mean value, for a minimum of two independent experiments. Results are shown in Table 2 (RIPK1 IC50) values: +++=0.1 nM<IC50<100 nM; ++=100 nM<IC50<1 μM; +=1 μM<IC50).

Sequence of GST-hRIPK1 (8-327) (Q13546 8-327): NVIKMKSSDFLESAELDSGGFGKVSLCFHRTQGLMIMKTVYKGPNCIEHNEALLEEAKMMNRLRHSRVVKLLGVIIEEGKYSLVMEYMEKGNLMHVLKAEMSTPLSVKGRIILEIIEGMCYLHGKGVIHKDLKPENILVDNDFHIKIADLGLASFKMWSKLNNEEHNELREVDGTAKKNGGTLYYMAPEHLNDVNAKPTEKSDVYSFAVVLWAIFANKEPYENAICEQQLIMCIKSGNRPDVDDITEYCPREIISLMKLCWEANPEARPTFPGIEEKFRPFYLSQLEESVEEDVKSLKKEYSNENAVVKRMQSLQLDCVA

With `CCC(C)(C)C(=O)N1CCOc2ccc(F)cc2C1` [Example 32, 1-(7-fluoro-2,3,4,5-tetrahydro-1,4-benzoxazepin-4-yl)-2,2-dimethylbutan-1-one] the IC50 was 0.1 to 100 nM.

For `CC(C)(C(=O)N1CCOc2ccc(F)cc2C1)C(F)F` [Example 33, 3,3-difluoro-1-(7-fluoro-2,3,4,5-tetrahydro-1,4-benzoxazepin-4-yl)-2,2-dimethylpropan-1-one], the IC50 was 0.1 to 100 nM.

In the case of `CC(C)(C(=O)N1CCOc2ncccc2C1)C(F)F` [Example 34, 1-(2,3-dihydropyrido[3,2-f][1,4]oxazepin-4(5H)-yl)-3,3-difluoro-2,2-dimethylpropan-1-one], the IC50 is reported as > 1000 nM.

`CC(C)(C(=O)N1CCOc2ccncc2C1)C(F)F` [Example 35, 1-(2,3-dihydropyrido[3,4-f][1,4]oxazepin-4(5H)-yl)-3,3-difluoro-2,2-dimethylpropan-1-one] gave an IC50 of 100 to 1000 nM.

With `CC1CN(C(=O)C(C)(C)C(F)F)Cc2ccccc2O1` (stereo not shown) [Example 36, 3,3-difluoro-2,2-dimethyl-1-(2-methyl-2,3-dihydrobenzo[f][1,4]oxazepin-4(5H)-yl)propan-1-one] the IC50 was > 1000 nM.

For `CC(C)(C(=O)N1CCOc2c(Br)cc(F)cc2C1)C(F)F` [Example 37, 1-(9-bromo-7-fluoro-3,5-dihydro-2H-1,4-benzoxazepin-4-yl)-3,3-difluoro-2,2-dimethyl-propan-1-one], the IC50 was 100 to 1000 nM.

With `CC(C)(C(=O)N1Cc2ccccc2CCO1)C(F)F` [Example 38, 3,3-difluoro-2,2-dimethyl-1-(1,2,4,5-tetrahydro-3,2-benzoxazepin-2-yl)propan-1-one] the IC50 was > 1000 nM.

`O=C(C1CCN(c2ncc(F)cn2)CC1)N1Cc2ccccc2CCO1` [Example 39, 2-[1-(5-fluoropyrimidin-2-yl)piperidine-4-carbonyl]-1,2,4,5-tetrahydro-3,2-benzoxazepine] gave an IC50 of 100 to 1000 nM.

For `CC1(C(=O)N2CCOc3c(C#N)cncc3C2)CCN(c2ncc(F)cn2)CC1` [Example 40, 4-[1-(5-fluoropyrimidin-2-yl)-4-methyl-piperidine-4-carbonyl]-3,5-dihydro-2H-pyrido[3,4-f][1,4]oxazepine-9-carbonitrile], the IC50 was 0.1 to 100 nM.

In the case of `CC1(C(=O)N2CCOc3c(C#N)cncc3C2)CCOCC1` [Example 41, 4-(4-methyltetrahydropyran-4-carbonyl)-3,5-dihydro-2H-pyrido[3,4-f][1,4]oxazepine-9-carbonitrile], the IC50 is reported as 100 to 1000 nM.

`CC1(C(=O)N2CCOc3c(C#N)cncc3C2)CCOC1` (stereo not shown) [Example 42, 4-(3-methyltetrahydrofuran-3-carbonyl)-3,5-dihydro-2H-pyrido[3,4-f][1,4]oxazepine-9-carbonitrile] showed an IC50 of 100 to 1000 nM.

Work on `COC(C)(C)C(=O)N1CCOc2c(C#N)cncc2C1` [Example 43, 4-(2-methoxy-2-methyl-propanoyl)-3,5-dihydro-2H-pyrido[3,4-f][1,4]oxazepine-9-carbonitrile] yielded an IC50 of 100 to 1000 nM.

For `N#Cc1cncc2c1OCCN(C(=O)C13CC(C1)C3)C2` [Example 44, 4-(bicyclo[1.1.1]pentane-3-carbonyl)-3,5-dihydro-2H-pyrido[3,4-f][1,4]oxazepine-9-carbonitrile], the IC50 was > 1000 nM.

With `CC(C)(C(=O)N1CCOc2c(C#N)cncc2C1)C(F)(F)F` [Example 45, 4-(3,3,3-trifluoro-2,2-dimethyl-propanoyl)-3,5-dihydro-2H-pyrido[3,4-f][1,4]oxazepine-9-carbonitrile] the IC50 was 0.1 to 100 nM.

Work on `N#Cc1cncc2c1OCCN(C(=O)C1(C3CC3)CC1)C2` [Example 46, 4-(1-cyclopropylcyclopropanecarbonyl)-3,5-dihydro-2H-pyrido[3,4-f][1,4]oxazepine-9-carbonitrile] yielded an IC50 of 100 to 1000 nM.

`CC(C)(CC(F)(F)F)C(=O)N1CCOc2c(C#N)cncc2C1` [Example 47, 4-(4,4,4-trifluoro-2,2-dimethyl-butanoyl)-3,5-dihydro-2H-pyrido[3,4-f][1,4]oxazepine-9-carbonitrile] showed an IC50 of 0.1 to 100 nM.

`N#Cc1cncc2c1OCCN(C(=O)C1(C(F)(F)F)CC1)C2` [Example 48, 4-[1-(trifluoromethyl)cyclopropanecarbonyl]-3,5-dihydro-2H-pyrido[3,4-f][1,4]oxazepine-9-carbonitrile] was tested, and the IC50 was 100 to 1000 nM.

`N#Cc1cncc2c1OCCN(C(=O)C1(C(F)F)CCC1)C2` [Example 49, 4-[1-(difluoromethyl)cyclobutanecarbonyl]-3,5-dihydro-2H-pyrido[3,4-f][1,4]oxazepine-9-carbonitrile] gave an IC50 of 0.1 to 100 nM.

Compound `CC1(C(=O)N2CCOc3c(C#N)cncc3C2)CC1(F)F` (stereo not shown) [Example 50, 4-(2,2-difluoro-1-methyl-cyclopropanecarbonyl)-3,5-dihydro-2H-pyrido[3,4-f][1,4]oxazepine-9-carbonitrile] has an IC50 of 100 to 1000 nM.

With `CC(C)(COC(F)(F)F)C(=O)N1CCOc2c(C#N)cncc2C1` [Example 51, 4-[2,2-dimethyl-3-(trifluoromethoxy)propanoyl]-3,5-dihydro-2H-pyrido[3,4-f][1,4]oxazepine-9-carbonitrile] the IC50 was 0.1 to 100 nM.

Compound `C[C@@H]1COc2c(C#N)cncc2CN1C(=O)C(C)(C)C(F)F` [Example 52, (3R)-4-(3,3-difluoro-2,2-dimethyl-propanoyl)-3-methyl-3,5-dihydro-2H-pyrido[3,4-f][1,4]oxazepine-9-carbonitrile] has an IC50 of 0.1 to 100 nM.

Work on `N#Cc1cncc2c1OCCN(C(=O)C1(C(F)(F)F)CCC1)C2` [Example 53, 4-[1-(trifluoromethyl)cyclobutanecarbonyl]-3,5-dihydro-2H-pyrido[3,4-f][1,4]oxazepine-9-carbonitrile] yielded an IC50 of 100 to 1000 nM.

For `CCC(C)(C)C(=O)N1CCOc2c(C#N)cncc2C1` [Example 54, 4-(2,2-dimethylbutanoyl)-3,5-dihydro-2H-pyrido[3,4-f][1,4]oxazepine-9-carbonitrile], the IC50 was 0.1 to 100 nM.

`CC(C)(C(=O)N1CCOc2c(F)cncc2C1)C(F)F` [Example 55, 3,3-difluoro-1-(9-fluoro-3,5-dihydro-2H-pyrido[3,4-f][1,4]oxazepin-4-yl)-2,2-dimethyl-propan-1-one] was tested, and the IC50 was 100 to 1000 nM.

`CC(C(=O)N1CCOc2c(C#N)cncc2C1)(C(F)F)C1CC1` (stereo not shown) [Example 56, 4-(2-cyclopropyl-3,3-difluoro-2-methyl-propanoyl)-3,5-dihydro-2H-pyrido[3,4-f][1,4]oxazepine-9-carbonitrile] was tested, and the IC50 was 0.1 to 100 nM.

For `CCC(C)(C(=O)N1CCOc2c(C#N)cncc2C1)C(F)F` (stereo not shown) [Example 57, 4-(2-(difluoromethyl)-2-methylbutanoyl)-2,3,4,5-tetrahydropyrido[3,4-f][1,4]oxazepine-9-carbonitrile], the IC50 was 0.1 to 100 nM.

With `CC(C)(CC1CC1)C(=O)N1CCOc2c(C#N)cncc2C1` [Example 58, 4-(3-cyclopropyl-2,2-dimethyl-propanoyl)-3,5-dihydro-2H-pyrido[3,4-f][1,4]oxazepine-9-carbonitrile] the IC50 was 100 to 1000 nM.

Work on `CC(C)(C(=O)N1CCOc2c(cnc(Cl)c2C#N)C1)C(F)F` [Example 59, 8-chloro-4-(3,3-difluoro-2,2-dimethyl-propanoyl)-3,5-dihydro-2H-pyrido[3,4-f][1,4]oxazepine-9-carbonitrile] yielded an IC50 of 100 to 1000 nM.

Work on `CC(C)(CCF)C(=O)N1CCOc2c(C#N)cncc2C1` [Example 60, 4-(4-fluoro-2,2-dimethyl-butanoyl)-3,5-dihydro-2H-pyrido[3,4-f][1,4]oxazepine-9-carbonitrile] yielded an IC50 of 100 to 1000 nM.

`CC(C)(C(=O)N1CCOc2c(Cl)cncc2C1)C(F)F` [Example 61, 1-(9-chloro-3,5-dihydro-2H-pyrido[3,4-f][1,4]oxazepin-4-yl)-3,3-difluoro-2,2-dimethyl-propan-1-one] showed an IC50 of 100 to 1000 nM.

In the case of `Cc1cncc2c1OCCN(C(=O)C(C)(C)C(F)F)C2` [Example 62, 3,3-difluoro-2,2-dimethyl-1-(9-methyl-3,5-dihydro-2H-pyrido[3,4-f][1,4]oxazepin-4-yl)propan-1-one], the IC50 is reported as > 1000 nM.

`CCC1(C(=O)N2CCOc3c(C#N)cncc3C2)CC1` [Example 63, 4-(1-ethylcyclopropanecarbonyl)-3,5-dihydro-2H-pyrido[3,4-f][1,4]oxazepine-9-carbonitrile] gave an IC50 of 100 to 1000 nM.

`CCC1(C(=O)N2CCOc3c(C#N)cncc3C2)CCC1` [Example 64, 4-(1-ethylcyclobutanecarbonyl)-3,5-dihydro-2H-pyrido[3,4-f][1,4]oxazepine-9-carbonitrile] was tested, and the IC50 was 100 to 1000 nM.

With `C[C@@H]1C[C@]1(C)C(=O)N1CCOc2c(C#N)cncc2C1` [Example 65, 4-[(1S,2R)-1,2-dimethylcyclopropanecarbonyl]-3,5-dihydro-2H-pyrido[3,4-f][1,4]oxazepine-9-carbonitrile] the IC50 was 100 to 1000 nM.

Reference: patent US11203600B2 (Denali Therapeutics Inc., priority 2017, dated 2021)
